Experimental data reported in patent US20110262359A1, “COMPOSITIONS COMPRISING ENZYME-CLEAVABLE PRODRUGS OF ACTIVE AGENTS AND INHIBITORS THEREOF” (priority 2010, published 2011).

Assays:
[1] = Oral administration of Compound PC-4 and Compound 101 trypsin inhibitor to rats; format: in vivo
[2] = Oral administration of Compound PC-3 and Compound 101 trypsin inhibitor to rats; format: in vivo
[3] = In vitro stability of Compound KC-3 to household chemicals and enzyme preparations; format: physicochemical; settings: vodka, baking soda, WINDEX, vinegar at RT or 80° C.; GNC Super Digestive, tenderizer, subtilisn at RT; 1 or 24 hr
Experimental: Samples were incubated as described. Aliquots were removed at 1 hr and 24 hr and stabilized by adding each to a solution of 50% or 100% of 85% phosphoric acid solution to achieve a final pH of less than or equal to pH 4. The stabilized aliquots were then diluted 4- to 6-fold with water, vortex-mixed and applied to HPLC.

[4] = male, Sprague Dawley, rat, in vivo
[5] = biological target: T1, trypsin from bovine pancreas (Bos taurus, UniProt P00760); test: In vitro trypsin conversion of ketone-modified opioid prodrugs to oxycodone or hydrocodone and inhibition by Compound 109; format: biochemical; parameters: trypsin from bovine pancreas; purchased Sigma-Aldrich T8003; host or cells: bovine pancreas (tissue-derived); settings: 241 BAEE U trypsin/mL; 0.761 mM prodrug; no inhibitor; 37° C.
T1 sequence (P00760 24-246): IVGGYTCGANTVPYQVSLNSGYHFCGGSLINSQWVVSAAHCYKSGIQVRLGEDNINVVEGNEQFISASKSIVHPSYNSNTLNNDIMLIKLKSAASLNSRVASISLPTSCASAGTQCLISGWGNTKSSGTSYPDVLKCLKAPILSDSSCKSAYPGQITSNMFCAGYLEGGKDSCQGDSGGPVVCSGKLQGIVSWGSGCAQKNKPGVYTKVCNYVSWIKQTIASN

[6] = In vivo tolerability of Compound KC-3 in rats (IV); settings: rat IV
Experimental: Male naïve Sprague-Dawley rats, 4 per dose, were used in the study. Rats were weighed, and then placed under a heat lamp for 15-20 minutes to dilate the lateral tail veins. […] Before dosing, rats were placed in Broome restrainers and the drug was introduced into one of the tail veins using a syringe and needle. […] Blood samples were collected 5 minutes post-dose via the saphenous vein. The rats were observed up to 24 hours.

[7] = Oral administration of Compound PC-1 and SBTI in the presence of ovalbumin to rats (hydromorphone in plasma); format: in vivo; settings: for Maximum concentration (Cmax) of hydromorphone in rat plasma: PC-1 20 mg/kg
[8] = Oral administration of Compound PC-1 and SBTI trypsin inhibitor to rats (hydromorphone in blood); settings: for Maximum concentration (Cmax) of hydromorphone in rat blood: PC-1 20 mg/kg
[9] = Oral administration of Compound PC-1 and BBSI inhibitor to rats; format: in vivo; settings: PC-1 20 mg/kg
[10] = Oral administration of Compound PC-2 and SBTI trypsin inhibitor to rats; format: in vivo; settings: for Cmax of hydromorphone in rat plasma: PC-2 20 mg/kg
[11] = Oral administration of Compound PC-3 and SBTI trypsin inhibitor to rats; format: in vivo; settings: for Cmax of hydromorphone in rat plasma / Tmax of hydromorphone in rat plasma: PC-3 20 mg/kg
[12] = Oral administration of Compound PC-4 and SBTI trypsin inhibitor to rats; format: in vivo; settings: for Cmax of HM in rat plasma / Tmax of HM in rat plasma: PC-4 20 mg/kg
[13] = biological target: T1, trypsin from bovine pancreas; test: In vitro trypsin conversion of prodrugs to hydromorphone and inhibition by trypsin inhibitor
[14] = biological target: T2, trypsin (Bos taurus, UniProt P00760); test: In vitro IC50 of trypsin inhibitors, modified trypsin assay; format: biochemical; settings: trypsin inhibition
T2 sequence (P00760 24-246): T1 sequence (P00760 24-246)

[15] = PC-3 20 mg/kg, Compound 101 10 mg/kg
[16] = PC-4 20 mg/kg, Compound 101 10 mg/kg

CCOC(=O)N1CCN(C(=O)[C@H](CCCNC(=N)N)NS(=O)(=O)c2ccc3ccccc3c2)CC1 [Compound 101, (S)-ethyl 4-(5-guanidino-2-(naphthalene-2-sulfonamido)pentanoyl)piperazine-1-carboxylate]
effect of Compound 101 on release of hydromorphone from Compound PC-4 ([1]; rat PO, PC-4 20 mg/kg with Compound 101 10 mg/kg): attenuates Compound PC-4's ability to release hydromorphone, both with respect to suppressing Cmax and delaying Tmax
effect of Compound 101 on release of hydromorphone from Compound PC-3 ([2]; rat PO, PC-3 20 mg/kg with Compound 101 10 mg/kg): attenuates Compound PC-3's ability to release hydromorphone, both with respect to suppressing Cmax and delaying Tmax

COc1ccc2c3c1O[C@H]1C(OC(=O)N(C)CCNC(=O)[C@H](CCCNC(=N)N)NC(=O)CC(=O)O)=CC[C@@]4(O)[C@@H](C2)N(C)CC[C@]314 [Compound KC-3, N-{(S)-4-guanidino-1-[2-(methyl-[(5R,9R,13S,14S)-4,5a-epoxy-6,7-didehydro-14-hydroxy-3-methoxy-17-methylmorphinan-6-oxy]carbonyl-amino)-ethylcarbamoyl]-butyl}-malonamic acid]
conversion of Compound KC-3 to oxycodone on exposure to household chemicals and enzyme preparations [3]: less than 10%
Compound conc. in CSF [4]: 34.1 ng/mL
Compound conc. in Plasma, ng/mL [4]: 59,225 ng/mL
Plasma/CSF partitioning coefficient [4]: 1,737
Rate of oxycodone formation, umol/h/BAEE U Average ± sd [5]: 0.0684 ± 0.0009 umol/h/BAEE U
dose tolerated by rats [6]: 97 µmol/kg
time to recover to normal activity ([6]; KC-3 97 μmol/kg): ≤ 2 min

CC(=O)NC(CCCNC(=N)N)C(=O)NCCN(C)C(=O)Oc1ccc2c3c1OC1C(=O)CCC4C(C2)N(C)CCC314 (centres unmarked) [Compound PC-1, hydromorphone 3-(N-methyl-N-(2-N′-acetylarginylamino)) ethylcarbamate]
Maximum concentration (Cmax) of hydromorphone in rat plasma ([7]; OVA 0 mg/kg, SBTI 0 mg/kg): 13.3 ± 3.7 ng/mL
Maximum concentration (Cmax) of hydromorphone in rat plasma ([7]; OVA 20 mg/kg, SBTI 0 mg/kg): 11.0 ± 5.4 ng/mL
Maximum concentration (Cmax) of hydromorphone in rat plasma ([7]; OVA 100 mg/kg, SBTI 0 mg/kg): 9.7 ± 3.1 ng/mL
Maximum concentration (Cmax) of hydromorphone in rat plasma ([7]; OVA 500 mg/kg, SBTI 0 mg/kg): 11.6 ± 2.5 ng/mL
Maximum concentration (Cmax) of hydromorphone in rat plasma ([7]; OVA 500 mg/kg, SBTI 500 mg/kg): 1.9 ± 0.9 ng/mL
Maximum concentration (Cmax) of hydromorphone in rat plasma ([7]; OVA 1000 mg/kg, SBTI 0 mg/kg): 10.3 ± 3.5 ng/mL
plasma Tmax of hydromorphone ([7]; rat PO, PC-1 20 mg/kg alone): 2.3 h
plasma Tmax of hydromorphone ([7]; rat PO, PC-1 20 mg/kg with 500 mg/kg OVA and 500 mg/kg SBTI): 8.0 h
Maximum concentration (Cmax) of hydromorphone in rat blood ([8]; SBTI 0 mg/kg): 16.5 ± 5.3 ng/mL
Maximum concentration (Cmax) of hydromorphone in rat blood ([8]; SBTI 10 mg/kg): 8.9 ± 1.8 ng/mL
Maximum concentration (Cmax) of hydromorphone in rat blood ([8]; SBTI 100 mg/kg): 6.0 ± 4.0 ng/mL
Maximum concentration (Cmax) of hydromorphone in rat blood ([8]; SBTI 500 mg/kg, lower limit of quantitation 5 ng/mL): <5 ng/mL
Maximum concentration (Cmax) of hydromorphone in rat blood ([8]; SBTI 1000 mg/kg, lower limit of quantitation 5 ng/mL): <5 ng/mL
Maximum concentration (Cmax) of hydromorphone in rat blood ([9]; BBSI 0 mg/kg, n = 4): 16.5 ± 5.3 ng/mL
Maximum concentration (Cmax) of hydromorphone in rat blood ([9]; BBSI 100 mg/kg, n = 3 (3 of the 4 rats)): 10.6 ± 5.9 ng/mL
Maximum concentration (Cmax) of hydromorphone in rat blood ([9]; BBSI 100 mg/kg, n = 4): 18.7 ± 17.0 ng/mL
Cmax of hydromorphone of the rat not included in n = 3 analysis ([9]; BBSI 100 mg/kg, one rat): 43 ng/mL
range of Cmax of hydromorphone of the other rats ([9]; rat PO, BBSI 100 mg/kg, the 3 rats of the n = 3 analysis): 6.8 to 17 ng/mL

CN(CCNC(=O)[C@@H](N)CCCNC(=N)N)C(=O)Oc1ccc2c3c1OC1C(=O)CCC4C(C2)N(C)CCC314 (stereo partly drawn) [Compound PC-2, [2-((S)-2-amino-5-guanidino-pentanoylamino)-ethyl]-methyl-carbamic acid hydromorphyl ester]
Cmax of hydromorphone in rat plasma ([10]; SBTI 0 mg/kg): 14.2 ± 2.6 ng/mL
Cmax of hydromorphone in rat plasma ([10]; SBTI 500 mg/kg): 7.3 ± 3.5 ng/mL

CC(=O)N[C@@H](CCCCN)C(=O)NCCN(C)C(=O)Oc1ccc2c3c1OC1C(=O)CCC4C(C2)N(C)CCC314 (stereo partly drawn) [Compound PC-3, (S)-2-Acetylamino-6-amino-hexanoic acid (2-methylamino-ethyl)-amide hydromorphone ester]
Cmax of hydromorphone in rat plasma ([11]; SBTI 500 mg/kg): 2.3 ± 1.7 ng/mL
Tmax of hydromorphone in rat plasma ([11]; SBTI 500 mg/kg): 7.3 h
Cmax of hydromorphone in rat plasma ([11]; no inhibitor): 9.0 ± 3.1 ng/mL
Tmax of hydromorphone in rat plasma ([11]; no inhibitor): 2.3 h
Cmax of HM in rat plasma [2, 15]: 3.8 ± 2.9 ng/mL
Tmax of HM in rat plasma [2, 15]: 3.5 h

CCN(CCNC(=O)[C@H](CCCNC(=N)N)NC(C)=O)C(=O)Oc1ccc2c3c1OC1C(=O)CCC4C(C2)N(C)CCC314 (some centres unmarked) [Compound PC-4]
Cmax of HM in rat plasma ([12]; SBTI 500 mg/kg): 7.5 ± 2.1 ng/mL
Tmax of HM in rat plasma ([12]; SBTI 500 mg/kg): 6.5 h
Cmax of HM in rat plasma ([12]; no inhibitor, 7 rats): 7.7 ± 2.3 ng/mL
Tmax of HM in rat plasma ([12]; no inhibitor, 7 rats): 2.3 h
Cmax of HM in rat plasma [1, 16]: 4.8 ± 1.4 ng/mL
Tmax of HM in rat plasma [1, 16]: 6.0 h
Rate of HM formation, umols/h/umol trypsin ([13]; no trypsin inhibitor, (n = 1)): 322 umols/h/umol trypsin
Rate of HM formation, umols/h/umol trypsin Average ± sd ([13]; with trypsin inhibitor 3,089 uM Compound 109): 3.27 ± 1.87 umols/h/umol trypsin

B1: SBTI: trypsin inhibitor from Glycine max (soybean) (Catalog No. 93620, ˜10,000 units per mg, Sigma-Aldrich) (protein, UniProt P01070 25-205, looked up)
Trypsin inhibitor A: DFVLDNEGNPLENGGTYYILSDITAFGGIRAAPTGNERCPLTVVQSRNELDKGIGTIISSPYRIRFIAEGHPLSLKFDSFAVIMLCVGIPTEWSVVEDLPEGPAVKIGENKDAMDGWFRLERVSDDEFNNYKLVFCPQQAEDDKCGDIGISIDHDDGTRRLVVSKNKPLVVQFQKLDKESL
effect of SBTI on release of hydromorphone from Compound PC-1 ([8]; rat PO, PC-1 20 mg/kg with SBTI 10 to 1000 mg/kg): attenuates Compound PC-1's ability to release hydromorphone in a dose-dependent manner
effect of SBTI on release of hydromorphone from Compound PC-2 ([10]; rat PO, PC-2 20 mg/kg with SBTI 500 mg/kg): attenuates Compound PC-2's ability to release hydromorphone, both with respect to suppressing Cmax and delaying Tmax
effect of SBTI on release of hydromorphone from Compound PC-4 ([12]; rat PO, PC-4 20 mg/kg with SBTI 500 mg/kg): attenuates Compound PC-4's ability to release hydromorphone, at least with respect to delaying Tmax
IC50 ([14]; Table 7): 270 nM
IC50 ([14]; Table 20): 270 nM
effect of SBTI on release of hydromorphone from Compound PC-3 ([11]; rat PO, PC-3 20 mg/kg with SBTI 500 mg/kg): attenuates Compound PC-3's ability to release hydromorphone, both with respect to suppressing Cmax and delaying Tmax

B2: ovalbumin: Albumin from chicken egg white (Catalog No. A7641, Sigma-Aldrich), used as a non-trypsin inhibitor protein control (protein, UniProt P01012 2-386, looked up)
Ovalbumin: GSIGAASMEFCFDVFKELKVHHANENIFYCPIAIMSALAMVYLGAKDSTRTQINKVVRFDKLPGFGDSIEAQCGTSVNVHSSLRDILNQITKPNDVYSFSLASRLYAEERYPILPEYLQCVKELYRGGLEPINFQTAADQARELINSWVESQTNGIIRNVLQPSSVDSQTAMVLVNAIVFKGLWEKAFKDEDTQAMPFRVTEQESKPVQMMYQIGLFRVASMASEKMKILELPFASGTMSMLVLLPDEVSGLEQLESIINFEKLTEWTSSNVMEERKIKVYLPRMKMEEKYNLTSVLMAMGITDVFSSSANLSGISSAESLKISQAVHAAHAEINEAGREVVGSAEAGVDAASVSEEFRADHPFLFCIKHIATNAVLFFGRCVSP
effect of ovalbumin on release of hydromorphone from Compound PC-1 ([7]; rat PO, PC-1 20 mg/kg with OVA 20 to 1000 mg/kg): does not significantly affect Compound PC-1's ability to release hydromorphone
